Patent US20250243488A1, “METHODS OF MODULATING PROGRANULIN EXPRESSION USING ANTISENSE OLIGONUCLEOTIDES TARGETING REGULATORY RNAS” (Camp4 Therapeutics Corporation, priority 2022, published 2025)
Oligonucleotides are written 5' to 3', each unit as a sugar letter and its base; * is a phosphorothioate linkage, no mark a phosphodiester; rarer units and linkages stand in square brackets, end groups in braces. Plain capitals give the bases only. e = 2'-O-(2-methoxyethyl) (MOE); l = locked nucleic acid (LNA); [5mC] = 5-methylcytosine

System: mGrn mRNA
Assay: mGrn mRNA qPCR in Neuro2a cells transfected with ASOs
Type: cell-based, mouse
Settings: for mGRN mRNA FC: Table 14, 100 nM, 48 hours, normalized to sNTC3; for 40 nM FC (mGrn mRNA) / 80 nM FC (mGrn mRNA) / 160 nM FC (mGrn mRNA): transfection
Procedure: 57 ASOs targeting the Grn promoter (− strand) were screened in Neuro2a cells. Neuro2a cells were transfected with 100 nM of each of the ASOs listed in Table 14 and cells were harvested 48 hours later for Grn mRNA quantification using qPCR. Housekeeping genes for normalization were Gapdh and Ppia. Relative Grn mRNA levels were normalized to mRNA extracted from cells treated with sNTC3 (steric nontargeting control).
Next, 26 ASOs based on parent ASOs CO-3544 and CO-3595 were designed with different modifications and base walking. Neuro2a cells were transfected with either […] or 160 nM of each of the ASOs listed in Table 15, and cells were harvested 48 hours later for mGrn mRNA quantification using qPCR. As controls, cells were treated with sNTC3 or no ASO. Housekeeping genes for normalization were Gapdh and Ppia. Relative Grn mRNA levels were normalized to mRNA extracted from cells treated with sNTC3.
CO-3544 was modified to include PO/PS bonds and the efficacy in upregulating mGrn mRNA was determined.
Similarly, CO-3595 was modified to include varying PO/PS internucleotide bonds and the efficacy of these ASOs in upregulating mGrn mRNA was determined in Neuro2A cells.

CO-3581: ASO targeting the Grn promoter (− strand) (antisense e[5mC]*eG*e[5mC]*e[5mC]*e[5mC]*eT*eT*eG*eA*eA*e[5mC]*e[5mC]*eT*eT*eT*eA*eT*eT*eA*eG)
mGRN mRNA FC (Neuro2a): 1.1 FC

CO-3549: ASO targeting the Grn promoter (− strand) (antisense eA*eG*e[5mC]*eT*eA*eA*eT*eT*eT*e[5mC]*e[5mC]*eG*e[5mC]*e[5mC]*eT*e[5mC]*eT*e[5mC]*e[5mC]*e[5mC])
mGRN mRNA FC (Neuro2a): 1.4 FC

CO-3558: ASO targeting the Grn promoter (− strand) (antisense eT*e[5mC]*e[5mC]*e[5mC]*e[5mC]*e[5mC]*e[5mC]*e[5mC]*eA*eA*eT*eA*eA*eG*eA*eG*eG*e[5mC]*eT*eT)
mGRN mRNA FC (Neuro2a): 1.2 FC

CO-3593: ASO targeting the Grn promoter (− strand) (antisense e[5mC]*eA*eT*eA*eA*e[5mC]*eA*eA*eT*eT*e[5mC]*e[5mC]*eT*e[5mC]*eG*eA*eA*eG*eG*eT)
mGRN mRNA FC (Neuro2a): 1.1 FC

CO-3588: ASO targeting the Grn promoter (− strand) (antisense eG*eT*e[5mC]*eT*eG*eT*eA*eA*eA*eG*eA*eA*e[5mC]*eA*eA*eG*eA*eT*eA*eT)
mGRN mRNA FC (Neuro2a): 0.9 FC

CO-5315: CO-3595 modified to include varying PO/PS internucleotide bonds (antisense l[5mC]*l[5mC]*eT*lG*eA*lA*e[5mC]*lT*eG*lT*eA*lT*eG*lG*e[5mC]*lT*lG*eA*l[5mC]*l[5mC])
40 nM FC (mGrn mRNA) (Table 16, Neuro2A): 1.3 FC
80 nM FC (mGrn mRNA) (Table 16, Neuro2A): 1.4 FC
160 nM FC (mGrn mRNA) (Table 16, Neuro2A): 1.6 FC

CO-5304: CO-3595 modified to include varying PO/PS internucleotide bonds (antisense e[5mC]*e[5mC]*eT*eG*eAeAe[5mC]eTeGeTeAeTeGeGe[5mC]eTeG*eA*e[5mC]*e[5mC])
40 nM FC (mGrn mRNA) (Table 16, Neuro2A): 1.4 FC
80 nM FC (mGrn mRNA) (Table 16, Neuro2A): 1.6 FC
160 nM FC (mGrn mRNA) (Table 16, Neuro2A): 2.2 FC

CO-3582: ASO targeting the Grn promoter (− strand) (antisense e[5mC]*eA*e[5mC]*eA*eT*e[5mC]*eT*eA*e[5mC]*eA*eG*eT*eG*e[5mC]*e[5mC]*e[5mC]*eG*eG*eT*eA)
mGRN mRNA FC (Neuro2a): 1.1 FC

CO-5309: CO-3595 modified to include varying PO/PS internucleotide bonds (antisense e[5mC]*e[5mC]*eTeGeAeAe[5mC]eTeGeTeAeTeGeGe[5mC]eT*eG*eA*e[5mC]*e[5mC])
40 nM FC (mGrn mRNA) (Table 16, Neuro2A): 1.3 FC
80 nM FC (mGrn mRNA) (Table 16, Neuro2A): 1.7 FC
160 nM FC (mGrn mRNA) (Table 16, Neuro2A): 2.0 FC

CO-3572: ASO targeting the Grn promoter (− strand) (antisense eG*e[5mC]*e[5mC]*eG*e[5mC]*e[5mC]*eA*eG*eA*eA*e[5mC]*e[5mC]*e[5mC]*eA*eA*eA*e[5mC]*e[5mC]*eA*eG)
mGRN mRNA FC (Neuro2a): 1.3 FC

CO-5305: CO-3595 modified to include varying PO/PS internucleotide bonds (antisense e[5mC]*e[5mC]*eT*eG*eA*eA*e[5mC]eTeGeTeAeTeGeGe[5mC]eTeG*eA*e[5mC]*e[5mC])
40 nM FC (mGrn mRNA) (Table 16, Neuro2A): 1.2 FC
80 nM FC (mGrn mRNA) (Table 16, Neuro2A): 1.4 FC
160 nM FC (mGrn mRNA) (Table 16, Neuro2A): 1.6 FC

CO-3589: ASO targeting the Grn promoter (− strand) (antisense eT*eT*eT*e[5mC]*eA*eA*e[5mC]*e[5mC]*e[5mC]*eT*eT*eG*e[5mC]*eT*eA*eG*eA*eG*eG*e[5mC])
mGRN mRNA FC (Neuro2a): 1.3 FC

CO-3553: ASO targeting the Grn promoter (− strand) (antisense e[5mC]*eA*eA*eG*eT*eG*eT*eT*e[5mC]*eT*e[5mC]*eT*eG*e[5mC]*eG*eG*e[5mC]*eG*eG*e[5mC])
mGRN mRNA FC (Neuro2a): 1.3 FC

CO-3560: ASO targeting the Grn promoter (− strand) (antisense eT*eG*eA*eT*eG*e[5mC]*eA*e[5mC]*eT*eA*eA*e[5mC]*eG*eA*eG*eG*eT*eT*eG*eT)
mGRN mRNA FC (Neuro2a): 1.2 FC

CO-3545: ASO targeting the Grn promoter (− strand) (antisense e[5mC]*eT*eA*eG*eT*eG*eG*eA*eA*eG*eA*eT*eG*eT*e[5mC]*eG*eG*eA*eG*e[5mC])
mGRN mRNA FC (Neuro2a): 1.7 FC

CO-3600: ASO targeting the Grn promoter (− strand) (antisense eG*eG*eA*eA*e[5mC]*eA*e[5mC]*e[5mC]*eT*eA*eT*eG*e[5mC]*eT*eA*eA*e[5mC]*eA*e[5mC]*e[5mC])
mGRN mRNA FC (Neuro2a): 1.5 FC

CO-3586: ASO targeting the Grn promoter (− strand) (antisense eA*eA*eT*e[5mC]*eT*eA*eG*eT*eT*eT*e[5mC]*eA*eA*eG*eT*eT*e[5mC]*e[5mC]*eT*e[5mC])
mGRN mRNA FC (Neuro2a): 1.4 FC

CO-3551: ASO targeting the Grn promoter (− strand) (antisense eG*e[5mC]*eG*eT*eG*eA*eT*eG*eG*e[5mC]*eT*eG*eA*eG*eT*e[5mC]*e[5mC]*e[5mC]*eT*eG)
mGRN mRNA FC (Neuro2a): 1.5 FC

CO-3580: ASO targeting the Grn promoter (− strand) (antisense eG*e[5mC]*e[5mC]*eA*e[5mC]*eT*e[5mC]*eT*e[5mC]*e[5mC]*e[5mC]*e[5mC]*eA*eT*eT*e[5mC]*eA*eA*eA*e[5mC])
mGRN mRNA FC (Neuro2a): 1.2 FC

CO-5296: CO-3544 modified to include PO/PS bonds (antisense eG*eT*eTe[5mC]eTe[5mC]e[5mC]e[5mC]eTeAeGe[5mC]eTeGeTeG*eT*eA*eG*eT)
40 nM FC (mGrn mRNA) (Table 15, Neuro2a): 1.1 FC
80 nM FC (mGrn mRNA) (Table 15, Neuro2a): 1.1 FC
160 nM FC (mGrn mRNA) (Table 15, Neuro2a): 1.0 FC

CO-3594: ASO targeting the Grn promoter (− strand) (antisense e[5mC]*eA*eT*eG*eG*eT*e[5mC]*eT*e[5mC]*eT*eA*eT*eT*e[5mC]*eA*e[5mC]*e[5mC]*e[5mC]*eA*e[5mC])
mGRN mRNA FC (Neuro2a): 1.6 FC

CO-3546: ASO targeting the Grn promoter (− strand) (antisense eG*eA*eA*eA*eT*eT*e[5mC]*eA*eT*eT*eT*e[5mC]*e[5mC]*e[5mC]*e[5mC]*eT*e[5mC]*eG*eA*e[5mC])
mGRN mRNA FC (Neuro2a): 1.4 FC

CO-3598: ASO targeting the Grn promoter (− strand) (antisense eT*eA*eA*eG*eA*eA*eG*e[5mC]*e[5mC]*e[5mC]*eT*e[5mC]*eA*e[5mC]*eG*eG*eA*eA*eT*eT)
mGRN mRNA FC (Neuro2a): 1.3 FC

CO-3592: ASO targeting the Grn promoter (− strand) (antisense eG*eA*eA*eA*e[5mC]*e[5mC]*e[5mC]*e[5mC]*eT*eT*e[5mC]*e[5mC]*eA*eT*e[5mC]*eT*e[5mC]*eG*eA*e[5mC])
mGRN mRNA FC (Neuro2a): 1.2 FC

CO-3556: ASO targeting the Grn promoter (− strand) (antisense eA*eG*eG*eA*e[5mC]*eA*eG*eG*eA*eA*e[5mC]*e[5mC]*eA*e[5mC]*e[5mC]*e[5mC]*e[5mC]*eA*e[5mC]*eT)
mGRN mRNA FC (Neuro2a): 1.3 FC

CO-3584: ASO targeting the Grn promoter (− strand) (antisense eG*e[5mC]*eT*eT*e[5mC]*eA*eA*eT*eT*eT*eA*eA*eT*eG*e[5mC]*eA*eG*eT*eG*e[5mC])
mGRN mRNA FC (Neuro2a): 1.1 FC

CO-5295: CO-3544 modified to include PO/PS bonds (antisense eG*eT*eT*e[5mC]*eT*e[5mC]*e[5mC]*e[5mC]*eT*eA*eG*e[5mC]*eTeGeTeGeT*eA*eG*eT)
40 nM FC (mGrn mRNA) (Table 15, Neuro2a): 1.1 FC
80 nM FC (mGrn mRNA) (Table 15, Neuro2a): 1.3 FC
160 nM FC (mGrn mRNA) (Table 15, Neuro2a): 1.4 FC

CO-5314: CO-3595 modified to include varying PO/PS internucleotide bonds (antisense l[5mC]*l[5mC]*eT*lG*lA*eA*l[5mC]*eT*lG*eT*lA*eT*lG*eG*l[5mC]*eT*lG*eA*l[5mC]*l[5mC])
40 nM FC (mGrn mRNA) (Table 16, Neuro2A): 1.5 FC
80 nM FC (mGrn mRNA) (Table 16, Neuro2A): 1.7 FC
160 nM FC (mGrn mRNA) (Table 16, Neuro2A): 1.5 FC

CO-3548: ASO targeting the Grn promoter (− strand) (antisense e[5mC]*eA*e[5mC]*eT*eT*eT*eT*e[5mC]*e[5mC]*e[5mC]*e[5mC]*e[5mC]*eG*e[5mC]*eT*eG*e[5mC]*e[5mC]*eT*e[5mC])
mGRN mRNA FC (Neuro2a): 1.5 FC

CO-3559: ASO targeting the Grn promoter (− strand) (antisense eG*eT*eT*eG*eT*eA*eG*eA*eG*eA*e[5mC]*eA*e[5mC]*e[5mC]*eT*e[5mC]*e[5mC]*e[5mC]*e[5mC]*eG)
mGRN mRNA FC (Neuro2a): 1.4 FC

CO-5308: CO-3595 modified to include varying PO/PS internucleotide bonds (antisense e[5mC]*e[5mC]*eT*eG*eA*eA*e[5mC]*eT*eG*eT*eA*eT*eGeGe[5mC]eTeG*eA*e[5mC]*e[5mC])
40 nM FC (mGrn mRNA) (Table 16, Neuro2A): 1.3 FC
80 nM FC (mGrn mRNA) (Table 16, Neuro2A): 1.4 FC
160 nM FC (mGrn mRNA) (Table 16, Neuro2A): 2.0 FC

CO-3568: ASO targeting the Grn promoter (− strand) (antisense e[5mC]*e[5mC]*eG*e[5mC]*e[5mC]*eT*e[5mC]*eT*eA*e[5mC]*eG*eT*eA*eG*eA*e[5mC]*eA*eA*eG*eT)
mGRN mRNA FC (Neuro2a): 1.2 FC

CO-3569: ASO targeting the Grn promoter (− strand) (antisense eG*eG*eA*eA*eT*eG*eT*eG*eA*eA*e[5mC]*eT*eG*eA*eG*eT*eA*eG*eA*eA)
mGRN mRNA FC (Neuro2a): 1.2 FC
